The test has as its system MX-1 Breast Carcinoma Xenograft. Nature of the test: PARP inhibitors in combination with cisplatin in an early staged MX-1 breast carcinoma xenograft model. It counts as in vivo, female SCID mice. The note with it: average tumor volume at Day 48; PARPi 25 or 0 mg/kg/day s.c. OMP x7 from day 16 + cisplatin 6 mg/kg/day i.p. qd x1 on day 18; footnote a not given; in mm³ (unit assumed). The method, then: PARP Inhibitors in Combination with Cisplatin in an Early Staged MX-1 Breast Carcinoma Xenograft Model
0.2 cc of 1:10 MX-1 tumor brei, was injected subcutaneously into the flank of female SCID mice (Charles River Labs) on study day 0. On day 15, tumors were size matched (188±25 mm^3) and the animals were placed into one of two therapy groups:
Group 1 vehicle (s.c. OMP×7)+Cisplatin 6 mg/kg/day (i.p., qd×1)
Group 2 PARPi 25 mg/kg/day (s.c. OMP×7)+Cisplatin 6 mg/kg/day (i.p., qd×1) The vehicle for both the PARP inhibitor and cisplatin was 0.9% NaCl. There were 8-10 […] in each group. Treatment with the PARPi began on day 16 while cisplatin treatment was started on day 18. At various intervals following tumor cell inoculation, the individual tumor dimensions were serially measured using calibrated microcalipers and the tumor volumes calculated according to the formula V=L×W^2/2 (V:volume, L:length, W:width). Mice were humanely euthanized when the tumor volumes reached a predetermined size.

On to `N.N.[Cl][Pt][Cl]` [Vhl (PARPi)/Cis, Cisplatin], for which the “Tumor Volume (Day 48)” value is on record as 1389 ± 300.

These data come from patent US8697736B2, “1H-benzimidazole-4-carboxamides substituted with phenyl at the 2-position are potent PARP inhibitors” (AbbVie Inc., priority 2005, dated 2014).
